Laboratory results from patent US8399681B2, “Substituted aminothiazolone indazoles as estrogen related receptor-alpha modulators” (Janssen Pharmaceutica NV, priority 2009, dated 2013).

Biological target: T1, ERR1 (also known as ERR-α or ERR-1) (Homo sapiens, UniProt P11474)
T1 sequence (P11474 193-421 limits assumed): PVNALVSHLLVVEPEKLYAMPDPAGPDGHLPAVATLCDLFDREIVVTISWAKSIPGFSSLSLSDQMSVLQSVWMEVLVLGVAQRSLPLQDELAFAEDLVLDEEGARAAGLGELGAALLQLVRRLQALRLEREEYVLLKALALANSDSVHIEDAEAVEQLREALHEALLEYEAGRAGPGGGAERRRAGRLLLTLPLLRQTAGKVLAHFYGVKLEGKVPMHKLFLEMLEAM
Assay: TR-FRET assay (disruption of co-activator peptide binding)
Assay type: biochemical
Details: 6His-tagged ERR1 LBD, GST-hSRC2 co-activator polypeptide; average of 3 independent experiments
Experimental: Time-Resolved Fluorescence Resonance Energy Transfer (TR-FRET) experiments were performed to examine the functional response of ERR1 (also known as ERR-α or ERR-1) ligands. The TR-FRET assay described herein relied on the conformation of ERR1 for binding to a co-activator peptide: when a test compound binds to ERR1 and alters its conformation, it can disrupt the binding of the co-activator peptide. The components of this homogeneous secondary assay included: the ^6His-tagged-ERR1LBD, a GST-labeled-hSRC2 co-activator polypeptide and a fluorescent donor/acceptor pair from CIS bio international htrf/bioassays (Bedford, Mass.) using both an α-GST Europium Cryptate (Eu) label and an α^6His-XL665 (allophycocyanin) fluorophore.
For TR-FRET measurements, the reaction was buffered in 25 mM Tris pH 8, 2.5 mM Hepes, 20 mM KCl, 1 mM DTT, and 0.05 mg/mL BSA (-lipids). The final concentrations of reagents were 6 nM of ERR1LBD, 6 nM GST-SRC-2 peptide, 30 nM Eu cryptate, and 7.5 nM XL665. Reactions were allowed to reach equilibrium at 25° C. for 4-18 hours before collecting data on the Analyst from LJL Biosystems (Molecular Devices Sunnyvale, Calif.). As a time-resolved method, the samples were excited at […] and emission was collected for 1 ms at both 615 and 665 nm with delays of 400 and 75 μs, respectively. Dose response curves were fitted using a hyperbolic equation and the data reported is the average of 3 independent experiments.

Which EC50 does the source give for `O=C1N=C(N2CCC(n3ccnc3)CC2)S/C1=C\c1ccc2c(cnn2Cc2ccc(Cl)cc2C(F)(F)F)c1` [Example 159, 5-[1-(4-Chloro-2-trifluoromethyl-benzyl)-1H-indazol-5-ylmethylene]-2-(4-imidazol-1-yl-piperidin-1-yl)-thiazol-4-one] here?
Its EC50 is 0.036 µM.

With `CC(C)(C)OC(=O)N1CCN(C2=NC(=O)/C(=C/c3ccc4c(c3)c(I)nn4Cc3ccc(C(F)(F)F)cc3C(F)(F)F)S2)C[C@@H]1CO` [Example 279, tert-Butyl (2R)-4-[5-({1-[2,4-bis(trifluoromethyl)benzyl]-3-iodo-1H-indazol-5-yl}methylidene)-4-oxo-4,5-dihydro-1,3-thiazol-2-yl]-2-(hydroxymethyl)piperazine-1-carboxylate] as the compound, how does the EC50 read?
The EC50 was 0.011 µM.

How did the EC50 turn out when `CN1C[C@H]2CC[C@@H](C1)N2C1=NC(=O)/C(=C/c2ccc3c(cnn3Cc3ccc(Cl)cc3C(F)(F)F)c2)S1` [Example 87, 5-[1-(4-Chloro-2-trifluoromethyl-benzyl)-1H-indazol-5-ylmethylene]-2-(3-methyl-3,8-diaza-bicyclo[3.2.1]oct-8-yl)-thiazol-4-one] was run?
Its EC50 is 0.015 µM.

How did the EC50 turn out when `O=C1N=C(N2CCO[C@@H](CO)C2)S/C1=C\c1ccc2c(cnn2Cc2ccc(C(F)(F)F)cc2C(F)(F)F)c1` [Example 172, 5-[1-(2,4-Bis-trifluoromethyl-benzyl)-1H-indazol-5-ylmethylene]-2(R)-(2-hydroxymethyl-morpholin-4-yl)-thiazol-4-one] was run?
The EC50 was 0.014 µM.

Which EC50 does the source give for `CS(=O)(=O)NC1CCN(C2=NC(=O)/C(=C/c3ccc4c(cnn4Cc4ccc(Cl)cc4C(F)(F)F)c3)S2)CC1` [Example 111, N-(1-{5-[1-(4-Chloro-2-trifluoromethyl-benzyl)-1H-indazol-5-ylmethylene]-4-oxo-4,5-dihydro-thiazol-2-yl}-piperidin-4-yl)-methanesulfonamide] here?
Its EC50 is 0.0069 µM.

Which EC50 does the source give for `O=C1N=C(N2CCO[C@@H](CO)C2)S/C1=C\c1ccc2c(cnn2Cc2ccc(O)cc2C(F)(F)F)c1` [Example 249, 2-[(2R)-2-(Hydroxymethyl)morpholin-4-yl]-5-({1-[4-hydroxy-2-(trifluoromethyl)benzyl]-1H-indazol-5-yl}methylidene)-1,3-thiazol-4(5H)-one] here?
Its EC50 is 0.004 µM.

Which EC50 does the source give for `O=C1N=C(N2CCN[C@@H](CO)C2)S/C1=C\c1ccc2c(c1)c(Cl)nn2Cc1ccc(Cl)cc1C(F)(F)F` [Example 187, 5-[3-Chloro-1-(4-chloro-2-trifluoromethyl-benzyl)-1H-indazol-5-ylmethylene]-2-(3-(R)-hydroxymethyl-piperazin-1-yl)-thiazol-4-one] here?
The EC50 was 0.0127 µM.

How did the EC50 turn out when `O=C(O)COC1CCN(C2=NC(=O)/C(=C/c3ccc4c(cnn4Cc4ccc(Cl)cc4C(F)(F)F)c3)S2)CC1` [Example 131] was run?
The EC50 was 0.0078 µM.

How did the EC50 turn out when `O=C1N=C(N2CCC(n3cncn3)CC2)S/C1=C\c1ccc2c(cnn2Cc2ccc(Cl)cc2C(F)(F)F)c1` [Example 158, 5-[1-(4-Chloro-2-trifluoromethyl-benzyl)-1H-indazol-5-ylmethylene]-2-(4-[1,2,4]triazol-1-yl-piperidin-1-yl)-thiazol-4-one] was run?
The EC50 was 0.032 µM.

Which EC50 does the source give for `COC(=O)C1CCN(C2=NC(=O)/C(=C/c3ccc4c(cnn4Cc4ccc(C(F)(F)F)cc4C(F)(F)F)c3)S2)CC1` [Example 190, Methyl 1-[5-({1-[2,4-bis(trifluoromethyl)benzyl]-1H-indazol-5-yl}methylidene)-4-oxo-4,5-dihydro-1,3-thiazol-2-yl]piperidine-4-carboxylate] here?
The EC50 was 0.053 µM.

How did the EC50 turn out when `CCOC(=O)C1(N)CCN(C2=NC(=O)/C(=C/c3ccc4c(cnn4Cc4ccc(Cl)cc4C(F)(F)F)c3)S2)CC1` [Example 156, 4-Amino-1-{5-[1-(4-chloro-2-trifluoromethyl-benzyl)-1H-indazol-5-ylmethylene]-4-oxo-4,5-dihydro-thiazol-2-yl}-piperidine-4-carboxylic acid ethyl ester] was run?
Its EC50 is 0.058 µM.

How did the EC50 turn out when `O=C(O)CN1CCN(C2=NC(=O)/C(=C/c3ccc4c(cnn4Cc4ccc(C(F)(F)F)cc4C(F)(F)F)c3)S2)CC1` [Example 119] was run?
The EC50 was 0.014 µM.

With `O=C1N=C(N2CCNCC2)S/C1=C\c1ccc2c(cnn2Cc2ccc(C(F)(F)F)cc2C(F)(F)F)c1` [Compound 7, 5-[1-(2,4-Bis-trifluoromethyl-benzyl)-1H-indazol-5-ylmethylene]-2-piperazin-1-yl-thiazol-4-one] as the compound, how does the EC50 read?
The EC50 was 0.038 µM.

How did the EC50 turn out when `COC[C@H]1CN(C2=NC(=O)/C(=C/c3ccc4c(cnn4Cc4ccc(Cl)cc4C(F)(F)F)c3)S2)CCN1` [Example 208, 5-({1-[4-Chloro-2-(trifluoromethyl)benzyl]-1H-indazol-5-yl}methylidene)-2-[3-(R)-(methoxymethyl)piperazin-1-yl]-1,3-thiazol-4(5H)-one] was run?
The EC50 was 0.006 µM.

Which EC50 does the source give for `CC[C@H]1CNCCN1C1=NC(=O)/C(=C/c2ccc3c(cnn3Cc3ccc(Cl)cc3C(F)(F)F)c2)S1` [Example 255] here?
Its EC50 is 0.028 µM.

Which EC50 does the source give for `N[C@@H]1C[C@H](CO)N(C2=NC(=O)/C(=C/c3ccc4c(cnn4Cc4ccc(Cl)cc4C(F)(F)F)c3)S2)C1` [Example 257, 2-[(2R,4R)-4-Amino-2-(hydroxymethyl)pyrrolidin-1-yl]-5-({1-[4-chloro-2-(trifluoromethyl)benzyl]-1H-indazol-5-yl}methylidene)-1,3-thiazol-4(5H)-one] here?
Its EC50 is 0.096 µM.

How did the EC50 turn out when `CCNC(=O)NC1CCN(C2=NC(=O)/C(=C/c3ccc4c(cnn4Cc4ccc(C(F)(F)F)cc4C(F)(F)F)c3)S2)CC1` [Example 160, 1-(1-{5-[1-(2,4-Bis-trifluoromethyl-benzyl)-1H-indazol-5-ylmethylene]-4-oxo-4,5-dihydro-thiazol-2-yl}-piperidin-4-yl)-3-ethyl-urea] was run?
Its EC50 is 0.022 µM.

Which EC50 does the source give for `N[C@@H]1CCCN(C2=NC(=O)/C(=C/c3ccc4c(cnn4Cc4ccc(Cl)cc4C(F)(F)F)c3)S2)C1` [Example 59, 2-(3-(R)-Amino-piperidin-1-yl)-5-[1-(4-chloro-2-trifluoromethyl-benzyl)-1H-indazol-5-ylmethylene]-thiazol-4-one] here?
Its EC50 is 0.023 µM.

`CN1CCN(C2=NC(=O)/C(=C/c3ccc4c(cnn4Cc4ccc(C(F)(F)F)cc4C(F)(F)F)c3)S2)CC1` [Compound 2, 5-[1-(2,4-Bis-trifluoromethyl-benzyl)-1H-indazol-5-ylmethylene]-2-(4-methyl-piperazin-1-yl)-thiazol-4-one] was tested. Which EC50 did it give?
Its EC50 is 0.0072 µM.

For `COCC(=O)N1CCN(C2=NC(=O)/C(=C/c3ccc4c(cnn4Cc4ccc(Cl)cc4C(F)(F)F)c3)S2)[C@H](C)C1` [Example 90, 5-[1-(4-Chloro-2-trifluoromethyl-benzyl)-1H-indazol-5-ylmethylene]-2-[4-(2-methoxy-acetyl)-2-(R)-methyl-piperazin-1-yl]-thiazol-4-one], which EC50 is on record?
The EC50 was 0.0034 µM.

Which EC50 does the source give for `CN1CCN(C2=NC(=O)/C(=C/c3ccc4c(cnn4Cc4ccc(C(F)(F)F)cc4C(F)(F)F)c3)S2)CC1(C)C` [Example 219, 5-({1-[2,4-Bis(trifluoromethyl)benzyl]-1H-indazol-5-yl}methylidene)-2-(3,3,4-trimethylpiperazin-1-yl)-1,3-thiazol-4(5H)-one] here?
Its EC50 is 0.023 µM.

For `CN1CCN(C2=NC(=O)/C(=C/c3ccc4c(cnn4Cc4ccc(C(F)(F)F)cc4C(F)(F)F)c3)S2)CC1CCO` (stereo not drawn) [Example 168, 5-[1-(2,4-Bis-trifluoromethyl-benzyl)-1H-indazol-5-ylmethylene]-2-[3-(2-hydroxy-ethyl)-4-methyl-piperazin-1-yl]-thiazol-4-one], which EC50 is on record?
The EC50 was 0.009 µM.

With `CN1CCN(C2=NC(=O)/C(=C/c3ccc4c(cnn4Cc4ccc(O)cc4C(F)(F)F)c3)S2)CC1` [Compound 22, 5-[1-(4-Hydroxy-2-trifluoromethyl-benzyl)-1H-indazol-5-ylmethylene]-2-(4-methyl-piperazin-1-yl)-thiazol-4-one] as the compound, how does the EC50 read?
The EC50 was 0.0114 µM.

How did the EC50 turn out when `O=C1N=C(N2CCNCC(O)C2)S/C1=C\c1ccc2c(cnn2Cc2ccc(C(F)(F)F)cc2C(F)(F)F)c1` (stereo not drawn) [Example 151, 5-[1-(2,4-Bis-trifluoromethyl-benzyl)-1H-indazol-5-ylmethylene]-2-(6-hydroxy-[1,4]diazepan-1-yl)thiazol-4-one] was run?
The EC50 was 0.0257 µM.

How did the EC50 turn out when `O=C1N=C(N2CCO[C@H](CO)C2)S/C1=C\c1ccc2c(c1)c(I)nn2Cc1ccc(C(F)(F)F)cc1C(F)(F)F` [Example 175, 5-[1-(2,4-Bis-trifluoromethyl-benzyl)-3-iodo-1H-indazol-5-ylmethylene]-2(S)-(2-hydroxymethyl-morpholin-4-yl)-thiazol-4-one] was run?
The EC50 was 0.005 µM.

For `COc1ccc(Cn2ncc3cc(/C=C4\SC(N5CCNCC5)=NC4=O)ccc32)c(C(F)(F)F)c1` [Example 34, 5-[1-(4-Methoxy-2-trifluoromethyl-benzyl)-1H-indazol-5-ylmethylene]-2-piperazin-1-yl-thiazol-4-one], which EC50 is on record?
The EC50 was 0.0075 µM.

With `NC(=O)C1CCN(C2=NC(=O)/C(=C/c3ccc4c(cnn4Cc4ccc(C(F)(F)F)cc4C(F)(F)F)c3)S2)CC1` [Example 106, 1-{5-[1-(2,4-Bis-trifluoromethyl-benzyl)-1H-indazol-5-ylmethylene]-4-oxo-4,5-dihydro-thiazol-2-yl}-piperidine-4-carboxylic acid amide] as the compound, how does the EC50 read?
The EC50 was 0.021 µM.
